Results on eight compounds are retold here after paper PMC12193579, “Pro-Apoptotic Activity of 1-(4,5,6,7-Tetrabromo-1H-benzimidazol-1-yl)propan-2-one, an Intracellular Inhibitor of PIM-1 Kinase in Acute Lymphoblastic Leukemia and Breast Cancer Cells” (International Journal of Molecular Sciences, 2025).

Entries after “also recorded” stand apart in the source; their conditions may differ. Read-outs that look alike come from different tables or passages of the source.

One series deals with Jurkat cells. More on the design: method as in PMID 15566294. Particulars: read-out: DC50 value, apoptosis of Jurkat cells; cited from earlier work.
For series [1], the system named is mitochondria polarization. More on the design: method as in PMID 15566294. Particulars: up to a 10 µM concentration; cited from earlier work.
The next series has as its system LNCaP cell line. Set-up: method as in PMID 29246854. As to conditions: 48 h of exposure to 10 μM; cited from earlier work.
For series [2], the system named is CK2 in CCRF-CEM cells (Ser529 in NF-κB p65). Description: PhosFlow analysis of NF-κB p65 Ser529 phosphorylation, CCRF-CEM. In kind it is cell-based, human. As to conditions: 16 µM, 24 h. How it is done: CCRF-CEM cells were prepared following the BD PhosFlow™ Protocol for Human PBMCs using NF-κB p65 (pS529)-PE (#558423), BD PhosFlow™ Perm Buffer III (#558050), Cytofix Fixation Buffer (#554655), and Stain Buffer FBS (#554656), all obtained from Becton Dickinson. Flow cytometric analysis was performed using a BD Accuri C6 Plus cytometer (Becton Dickinson) according to the manufacturer’s instructions.

The next series concerns the target T1, PIM-1 kinase (Homo sapiens, UniProt P11309).
T1 construct: made in house
In words: radiometric P81 filter isotopic kinase assay, PIM-1. Particulars: for remaining activity at 2 µM: cpd. concentration 2 μM; for remaining activity at 2 µM / remaining activity at 5 µM / remaining activity at 20 µM: read-out: PIM-1 Residual Activity [%]; for remaining activity at 5 µM: cpd. concentration 5 μM; for remaining activity at 20 µM: cpd. concentration 20 μM. In kind it is biochemical. How it is done:
(§1) Synthetic peptide […] served as the substrate for CK2, while peptide […] was used as the substrate for PIM-1.
(§2) The synthesized compounds were evaluated for their inhibitory activity against human CK2α, the human CK2 holoenzyme, and PIM-1 using the P81 filter-based isotopic assay, as previously described. […] The experimental data were fitted to a dose–response curve using non-linear regression analysis (variable slope) Y = Bottom + (Top − Bottom)/(1 + 10^((LogIC50 − X) × HillSlope) equation in GraphPad Prism (Prism 9, version 9.0.1).

The test system of series [3] is Vero (Cercopithecus aethiops kidney). In words: MTT-based viability assay, Vero. Format: cell-based. Particulars: Chlorocebus sabaeus, 48 h, read-out: IC50 [µM] Vero. As for the experimental part:
(§3) 3. The cytotoxicity of the newly obtained inhibitors, i.e., 1, 2, and 4 was tested towards four cell lines, i.e., CCRF-CEM (acute lymphoblastic leukemia ALL), MCF-7 (breast carcinoma), MDA-MB-231 (triple negative breast carcinoma), and Vero (Cercopithecus aethiops kidney).
(§4) The CCRF-CEM (acute lymphoblastic leukemia, ALL) and MDA-MB-231 (triple-negative breast adenocarcinoma) cell lines were obtained from the European Collection of Authenticated Cell Cultures (ECACC), while the MCF-7 (hormone-dependent breast adenocarcinoma) and Vero (Cercopithecus aethiops kidney) cell lines were purchased from the American Type Culture Collection (ATCC, Manassas, VA, USA). CCRF-CEM cells were maintained in RPMI-1640 medium, whereas MCF-7 and MDA-MB-231 cells were cultured in DMEM (Sigma-Aldrich Chemical Company, St. Louis, MO, USA). Vero cells were cultured in minimum essential medium eagle (MEM; Sigma-Aldrich). All media were supplemented with 10% fetal bovine serum (FBS), 2 mM L-glutamine, and antibiotics (100 U/mL penicillin and 100 µg/mL streptomycin) (Sigma-Aldrich). Cells were grown in 75-cm^2 culture flasks (Googlab Scientific, Rakocin, Poland) in a humidified atmosphere containing 5% CO2 at 37 °C. All experiments were performed using exponentially growing cultures. Stock solutions of the test compounds were prepared in DMSO and stored at –80 °C for up to one month.
(§5) Following incubation with the tested compounds, the MTT assay was carried out as previously described. Optical density was measured at 570 nm using a BioTek microplate reader (Winooski, VT, USA). All measurements were performed in at least three independent biological replicates.

Series [4] deals with CCRF-CEM cells. Description: mitochondrial membrane potential (ΔΨm) JC-1 assay, CCRF-CEM. In kind it is cell-based, human. As to conditions: 16 µM, 48 h. As for the experimental part: The mitochondrial membrane potential was evaluated by flow cytometry using 5,5′,6,6′-tetrachloro-1,1′,3,3′-tetraethylbenzimidazolocarbocyanine iodide (JC-1; Sigma-Aldrich), as previously described.

For series [5], the system named is MDA-MB-231 (breast carcinoma). In words: MTT-based viability assay, MDA-MB-231. In kind it is cell-based, human. Particulars: for IC50: Homo sapiens, read-out: IC50 [µM] MDA-MB-231. As for the experimental part:
as §3, §4, §5

For a further series, the system named is MCF-7 (breast carcinoma). Description: MTT-based viability assay, MCF-7. Format: cell-based, human. As to conditions: for IC50: Homo sapiens, read-out: IC50 [µM] MCF-7; for SI (selectivity index) MCF-7: IC50 for Vero/IC50 for cancer cells. As for the experimental part:
as §3, §4, §5

Series [6] relates to hormone-sensitive human prostate cancer cell line LNCaP. Set-up: method as in PMID 22698781. As to conditions: cited from earlier work.
The next series relates to MCF-7 cells. Description: cell cycle progression by flow cytometry, MCF-7. Particulars: 8 µM, 48 h; control 17%. Format: cell-based, human. As for the experimental part: Additionally, we observed the prolongation of G2/M in MCF-7 treated with 1 at the highest concentration. […] 1 induced G2/M phase arrest in MCF-7 with the highest effect detected for the 16 µM concentration, manifested as 32% cells in that stage, whereas in the control, the percentage of G2/M cells was 22%.
(§6) CCRF-CEM and MCF-7 cells were cultured in 6-well plates and treated with the tested compounds for 48 h. After exposure to the compounds, the cells were collected, washed with cold PBS, and fixed in 70% ethanol at –20 °C for at least 24 h. Subsequently, the cells were washed in PBS and stained according to the procedure previously described by our group. The cellular DNA content was measured by flow cytometry using a BD Accuri C6 Plus flow cytometer (BD Biosciences, San Jose, CA, USA). The resulting DNA histograms were analyzed with BD Accuri C6 Plus software (San Diego, CA, USA) to assess the distribution of cells across different phases of the cell cycle.

The subject of series [7] is CCRF-CEM cells. In words: annexin V/propidium iodide apoptosis, flow cytometry, CCRF-CEM. Format: cell-based, human. Particulars: 48 h, annexin V binding. How it is done: The results obtained for CCRF-CEM and MCF-7 are shown in Figure 3 and Figure 4, respectively. […] 1, 79.6% of cells were apoptotic.
CCRF-CEM cells were seeded in 24-well plates at a density of 2 × 10^5 cells/mL. The cells were treated with the tested compounds at concentrations of 8, 16, and 32 µM, followed by incubation for 48 h. After treatment, the cells were harvested and processed according to the previously described protocol. Flow cytometric measurements were conducted within 1 h of cell labeling. Viable, necrotic, early apoptotic, and late apoptotic cells were identified using a BD Accuri C6 Plus flow cytometer and analyzed with BD Accuri C6 Plus software, version 1.0.34.1 (BD Biosciences, San Jose, CA, USA).

Series [8] concerns CCRF-CEM (acute lymphoblastic leukemia). Description: MTT-based viability assay, CCRF-CEM. In kind it is cell-based, human. Particulars: for IC50: Homo sapiens, CCRF-CEM, 48 h, read-out: IC50 [µM] CCRF-CEM; for SI (selectivity index) CCRF-CEM: IC50 for Vero/IC50 for cancer cells. As for the experimental part:
as §3, §4, §5

The test system of series [9] is CCRF-CEM cells. Description: cell cycle progression by flow cytometry, CCRF-CEM. In kind it is cell-based, human. Particulars: 16 µM, 48 h; control 33%. As for the experimental part: Since CK2 and PIM kinases regulate cell cycle progression, their inhibition may alter the distribution of cells across different cell cycle phases. […] For control cells, the percentage of G2/M cells was 17%. In addition to those changes, we observed cells in the sub-G1 phase, which are apoptotic cells. Accumulation of cells in this phase reflects DNA degradation characteristic of apoptotic cells. The largest percentage of these cells, i.e., 32% was determined in 16 µM 1-treated cells (Figure 6a,b).
as §6

Series [10] deals with T2, recombinant human CK2 catalytic subunit (rhCK2α) (Homo sapiens, UniProt P68400).
T2 construct: made in house
T2 sequence (P68400 whole entry): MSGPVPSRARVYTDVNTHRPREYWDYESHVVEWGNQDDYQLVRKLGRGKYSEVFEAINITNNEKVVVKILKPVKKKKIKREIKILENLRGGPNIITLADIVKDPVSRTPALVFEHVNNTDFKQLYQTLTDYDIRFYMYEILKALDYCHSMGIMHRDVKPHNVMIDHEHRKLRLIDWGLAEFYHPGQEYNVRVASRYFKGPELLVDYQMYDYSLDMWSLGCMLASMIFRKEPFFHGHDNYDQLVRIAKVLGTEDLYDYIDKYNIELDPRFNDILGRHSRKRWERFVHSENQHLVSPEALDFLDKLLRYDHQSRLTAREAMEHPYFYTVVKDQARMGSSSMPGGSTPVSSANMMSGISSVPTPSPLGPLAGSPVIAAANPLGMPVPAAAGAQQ
In words: radiometric P81 filter isotopic kinase assay, CK2α. Format: biochemical. As to conditions: for remaining activity at 2 µM: cpd. concentration 2 μM; for remaining activity at 2 µM / remaining activity at 5 µM / remaining activity at 20 µM: read-out: CK2α Residual Activity [%]; for remaining activity at 5 µM: cpd. concentration 5 μM; for remaining activity at 20 µM: cpd. concentration 20 μM. As for the experimental part: as §1, §2

T1 sequence (P11309 whole entry): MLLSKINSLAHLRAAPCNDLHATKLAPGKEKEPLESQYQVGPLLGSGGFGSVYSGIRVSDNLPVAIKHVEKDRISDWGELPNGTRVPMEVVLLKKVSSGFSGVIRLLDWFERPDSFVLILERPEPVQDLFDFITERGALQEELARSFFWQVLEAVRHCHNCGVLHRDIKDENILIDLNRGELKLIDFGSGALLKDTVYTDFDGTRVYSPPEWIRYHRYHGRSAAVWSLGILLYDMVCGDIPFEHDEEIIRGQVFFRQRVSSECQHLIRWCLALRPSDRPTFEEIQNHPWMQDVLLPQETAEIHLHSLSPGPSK

In the case of `CN(C)c1nc2c(Br)c(Br)c(Br)c(Br)c2[nH]1` [DMAT, 2-Dimethylamino-4,5,6,7-tetrabromo-1H-benzimidazole], in the series with Jurkat cells, the DC50 is 2.7 µM. Besides, in [1], the “side effect on mitochondria polarization” value is given as “does not display any side effect on mitochondria polarization”.
Turning to `OCC1OC(n2cnc3c(Br)c(Br)c(Br)c(Br)c32)CC1O` [K164, 1-(β-D-2′-deoxyribofuranosyl)-4,5,6,7-tetrabromo-1H-benzimidazole], in the series with LNCaP cell line, the “apoptotic cells, LNCaP” value is on record as 91.8%.
For the compound `Brc1c(Br)c(Br)c2[nH]cnc2c1Br` [TBBi, 4,5,6,7-tetrabromo-1H-benzimidazole, reference compound], the “p65-P-negative CCRF-CEM cells” value in series [2] is 28%. Moreover, the IC50 against PIM-1 kinase turned out to be 0.53 ± 0.04 µM; in [3] it was 24.8 ± 0.9 µM; in series [5] (MDA-MB-231, 48 h), 29.7 ± 2.23 µM; with MCF-7 (breast carcinoma) (MCF7, 48 h), 12.6 ± 2.72 µM; in series [8] it was 17.6 ± 0.67 µM. Besides, the “CCRF-CEM cells with reduced ΔΨm” value with CCRF-CEM cells [4] is reported as 37%. Further, in [6], the “LD50 against LNCaP” value is “≈ 20 µM”. In addition, the “MCF-7 cells in the S phase” value with MCF-7 cells is reported as 12%. In addition, the “apoptotic CCRF-CEM cells” value in the series on CCRF-CEM cells [7] (8 µM) is listed as 16%; with CCRF-CEM cells [7] (16 µM), 44%; with CCRF-CEM cells [7] (32 µM), 95%. Besides, the “CCRF-CEM cells in the S phase” value with CCRF-CEM cells [9] is listed as 19%.
Regarding `Brc1c(Br)c(Br)c2[nH]nnc2c1Br` [TBBt, 4,5,6,7-tetrabromo-1(2)H-benzotriazole], the DC50 in the series on Jurkat cells was 17 µM.
As to `Ic1c(I)c(I)c2[nH]cnc2c1I` [TIBI, 4,5,6,7-tetraiodo-1H-benzimidazole], the “LD50 against LNCaP” value in series [6] was “≈ 20 µM”.
For `CC(O)Cn1cnc2c(Br)c(Br)c(Br)c(Br)c21` (stereo not drawn) [compound 2, 1-(4,5,6,7-tetrabromo-1H-benzimidazol-1-yl)propan-2-ol], the IC50 in [10] was found to be 11.1 ± 0.15 µM; against PIM-1 kinase, 2.41 ± 0.29 µM; in series [3] (MTT, non-cancerous cells), 96.1 ± 4.76 µM; in series [5] (MDA-MB-231, MTT, 48 h), 28.2 ± 3.27 µM; in the series with MCF-7 (breast carcinoma) (MCF7, MTT, 48 h), 18.4 ± 0.41 µM; in series [8] (MTT), 58.2 ± 5.86 µM. Besides, the remaining activity at 2 µM in [10] stood at 70.9 ± 0.9%; on PIM-1 kinase, 58 ± 2.4%. Also, the figures for the remaining activity at 5 µM (in series [10]; on PIM-1 kinase) were 41.8 ± 2.3% and 26.4 ± 1.7%, respectively. Also, the figures for the remaining activity at 20 µM (in series [10]; on PIM-1 kinase) were 20.1 ± 1.2% and 9.3 ± 0.3%, respectively. The “SI (selectivity index) MDA-MB-231” value in series [5] (IC50 for Vero/IC50 for cancer cells) is given as 3.4. For the same compound, the “SI (selectivity index) MCF-7” value in the series on MCF-7 (breast carcinoma) was determined as 5.21. Moreover, the “SI (selectivity index) CCRF-CEM” value in [8] is 1.65.
On to `CC(=O)CCn1cnc2c(Br)c(Br)c(Br)c(Br)c21` [compound 3, 4-(4,5,6,7-Tetrabromo-1H-benzimidazol-1-yl)butan-2-one], for which, in series [10], the “inhibition of CK2 kinase (in words)” value is “inactive; also recorded: very weak”, the remaining activity at 2 µM came to 102 ± 8.9%, the remaining activity at 5 µM came to 89.2 ± 8.6% and the remaining activity at 20 µM worked out at 82.8 ± 15.4%. At PIM-1 kinase, the “inhibition of PIM-1 kinase (in words)” value is “inactive; also recorded: very weak”, the remaining activity at 2 µM came out at 82.5 ± 4.2%, the remaining activity at 5 µM was determined as 67.4 ± 0.7% and the remaining activity at 20 µM worked out at 62.6 ± 0.8%.
`CC(O)CCn1cnc2c(Br)c(Br)c(Br)c(Br)c21` (stereo not drawn) [compound 4]: the values for the remaining activity at 2 µM (in series [10]; at PIM-1 kinase) were 72.1 ± 3% and 66.9 ± 1.1%, respectively. In addition, the remaining activity at 5 µM in series [10] came to 21.3 ± 1.9%; on PIM-1 kinase, 29.1 ± 0.1%. Besides, the remaining activity at 20 µM in series [10] amounted to 15.6 ± 0.3%; at PIM-1 kinase, 21.4 ± 0.2%. Moreover, the IC50 is 3.08 ± 0.07 µM against PIM-1 kinase; 132 ± 19.4 µM in [3] (MTT, non-cancerous cells); greater than 200 µM in [5] (MDA-MB-231, MTT, 48 h); 41.9 ± 8.37 µM in the series with MCF-7 (breast carcinoma) (MCF7, MTT, 48 h); 75.3 ± 10.3 µM in [8] (MTT). Further, the “SI (selectivity index) MCF-7” value in the series with MCF-7 (breast carcinoma) amounted to 3.15. The “SI (selectivity index) CCRF-CEM” value in series [8] is recorded as 1.75.
